Measurements published in US12110305B2, “Prodrugs of phosphonamide nucleotide analogues and their pharmaceutical use” (priority 2020, dated 2024).
pEC50: −log10 of the molar value.

Tested on: HIV-1 (IIIB)
Test: Antiviral (HIV) assay in MT-4 cells
Type: cell-based
Conditions: Human immunodeficiency virus 1, MT4, 120 h; HIV-1 IIIB in MT-4 cells, 5 days incubation, Cell Titer Glo; average of at least two independent experiments
Method: Example 104: Antiviral (HIV) Assay in MT-4 Cells
Compounds were tested in a high-throughput 384-well assay format for their ability to inhibit the replication of HIV-1 (IIIB) in MT-4 cells. Compounds were serially diluted (1:3) in DMSO on 384-well polypropylene plates and further diluted 200-fold into complete RPMI media (10% FBS, 1% P/S) using the Biotek Micro Flow and Labcyte ECHO acoustic dispenser. Each plate contained up to 8 test compounds, with negative (no drug) and positive (5 μM AZT) controls. MT-4 cells were pre-treated with 10 μL of either RPMI (mock-infected) or a fresh 1:250 dilution of HIV-1 IIIB concentrated virus stock. Infected and uninfected MT-4 cells were further diluted in complete RPMI media and added to each plate using a Micro Flow dispenser. After 5 days incubation in a humidified and temperature-controlled incubator (37° C.), Cell Titer Glo (Promega) was added to the assay plates and chemiluminescence read using an Envision plate-reader. EC50 values were defined as the compound concentration that causes a 50% decrease in luminescence signal and were calculated using a sigmoidal dose-response model to generate curve fits and are shown in Table 1.

For `CCCCCCOC(=O)C(C)(C)NP(=O)(CO[C@H](C)Cn1cnc2c(N)ncnc21)NC(C)(C)C(=O)OCCCCCC` [Example 1, Dihexyl 2,2′-(((((1-(6-amino-9H-purin-9-yl)propan-2-yl)oxy)methyl)phosphoryl)bis(azanediyl))(R)-bis(2-methylpropanoate)], the pEC50 was 8.30.

`CCC(CC)COC(=O)C(C)(C)NP(=O)(CO[C@H](C)Cn1cnc2c(N)ncnc21)NC(C)(C)C(=O)OCC(CC)CC` [Example 2, Bis(2-ethylbutyl) 2,2′-(((((1-(6-amino-9H-purin-9-yl)propan-2-yl)oxy)methyl)phosphoryl)bis(azanediyl))(R)-bis(2-methylpropanoate)] showed a pEC50 of 8.40.

In the case of `C[C@H](Cn1cnc2c(N)ncnc21)OCP(=O)(NC(C)(C)C(=O)OCc1ccccc1)NC(C)(C)C(=O)OCc1ccccc1` [Example 3, Dibenzyl 2,2′-(((((1-(6-amino-9H-purin-9-yl)propan-2-yl)oxy)methyl)phosphoryl)bis(azanediyl))(R)-bis(2-methylpropanoate)], the pEC50 was 8.00.

`CCCCCOC(=O)C(C)(C)NP(=O)(CO[C@H](C)Cn1cnc2c(N)ncnc21)NC(C)(C)C(=O)OCCCCC` [Example 4, Dipentyl 2,2′-(((((1-(6-amino-9H-purin-9-yl)propan-2-yl)oxy)methyl)phosphoryl)bis(azanediyl))(R)-bis(2-methylpropanoate)] showed a pEC50 of 8.22.

In the case of `C[C@H](Cn1cnc2c(N)ncnc21)OCP(=O)(NC(C)(C)C(=O)OCC(C)(C)C)NC(C)(C)C(=O)OCC(C)(C)C` [Example 5], the pEC50 was 8.30.

Work on `CC(C)CCOC(=O)C(C)(C)NP(=O)(CO[C@H](C)Cn1cnc2c(N)ncnc21)NC(C)(C)C(=O)OCCC(C)C` [Example 6, Diisopentyl 2,2′-(((((1-(6-amino-9H-purin-9-yl)propan-2-yl)oxy)methyl)phosphoryl)bis(azanediyl))(R)-bis(2-methylpropanoate)] yielded a pEC50 of 8.70.

For `CCC(CC)CCOC(=O)C(C)(C)NP(=O)(CO[C@H](C)Cn1cnc2c(N)ncnc21)NC(C)(C)C(=O)OCCC(CC)CC` [Example 7, Bis(3-ethylpentyl) 2,2′-(((((1-(6-amino-9H-purin-9-yl)propan-2-yl)oxy)methyl)phosphoryl)bis(azanediyl))(R)-bis(2-methylpropanoate)], the pEC50 was 8.05.

With `C[C@H](Cn1cnc2c(N)ncnc21)OCP(=O)(NC(C)(C)C(=O)OCCC(C)(C)C)NC(C)(C)C(=O)OCCC(C)(C)C` [Example 8, Bis(3,3-dimethylbutyl) 2,2′-(((((1-(6-amino-9H-purin-9-yl)propan-2-yl)oxy)methyl)phosphoryl)bis(azanediyl))(R)-bis(2-methylpropanoate)] the pEC50 was 8.30.

For `C[C@H](Cn1cnc2c(N)ncnc21)OCP(=O)(NC(C)(C)C(=O)OC(C)(C)C)NC(C)(C)C(=O)OC(C)(C)C` [Example 9, Di-tert-butyl 2,2′-(((((1-(6-amino-9H-purin-9-yl)propan-2-yl)oxy)methyl)phosphoryl)bis(azanediyl))(R)-bis(2-methylpropanoate)], the pEC50 was 6.77.

In the case of `CCCCCCOC(=O)[C@](C)(CC)NP(=O)(CO[C@H](C)Cn1cnc2c(N)ncnc21)N[C@@](C)(CC)C(=O)OCCCCCC` [Example 10, Dihexyl 2,2′-((((((R)-1-(6-amino-9H-purin-9-yl)propan-2-yl)oxy)methyl)phosphoryl)bis(azanediyl))(2S,2'S)-bis(2-methylbutanoate)], the pEC50 was 7.43.

Compound `CCCCCCOC(=O)[C@](C)(Cc1ccccc1)NP(=O)(CO[C@H](C)Cn1cnc2c(N)ncnc21)N[C@@](C)(Cc1ccccc1)C(=O)OCCCCCC` [Example 11, Dihexyl 2,2′-((((((R)-1-(6-amino-9H-purin-9-yl)propan-2-yl)oxy)methyl)phosphoryl)bis(azanediyl))(2S,2'S)-bis(2-methyl-3-phenylpropanoate)] has a pEC50 of 7.77.

`C[C@H](Cn1cnc2c(N)ncnc21)OCP(=O)(NC(C)(C)C(=O)OCCC1CCCCC1)NC(C)(C)C(=O)OCCC1CCCCC1` [Example 14, Bis(2-cyclohexylethyl) 2,2′-(((((1-(6-amino-9H-purin-9-yl)propan-2-yl)oxy)methyl)phosphoryl)bis(azanediyl))(R)-bis(2-methylpropanoate)] showed a pEC50 of 8.15.

With `C[C@H](Cn1cnc2c(N)ncnc21)OCP(=O)(N[C@@](C)(Cc1ccccc1)C(=O)OCC1CCCCC1)N[C@@](C)(Cc1ccccc1)C(=O)OCC1CCCCC1` [Example 15, Bis(cyclohexylmethyl) 2,2′-((((((R)-1-(6-amino-9H-purin-9-yl)propan-2-yl)oxy)methyl)phosphoryl)bis(azanediyl))(2S,2'S)-bis(2-methyl-3-phenylpropanoate)] the pEC50 was 7.77.

Work on `CCCCCCOC(=O)C(C)(C)NP(=O)(CO[C@H](C)Cn1cnc2c(N)ncnc21)N[C@]1(C(=O)OCCCCCC)C[C@H]1CC` (stereo partly drawn) [Example 16, Hexyl (1R,2R)-1-((((((R)-1-(6-amino-9H-purin-9-yl)propan-2-yl)oxy)methyl)((1-(hexyloxy)-2-methyl-1-oxopropan-2-yl)amino)phosphoryl)amino)-2-ethylcyclopropane-1-carboxylate] yielded a pEC50 of 7.46.

In the case of `CCCCCCOC(=O)[C@@]1(NP(=O)(CO[C@H](C)Cn2cnc3c(N)ncnc32)N[C@]2(C(=O)OCCCCCC)C[C@H]2CC)C[C@H]1CC` [Example 17, Dihexyl 1,1′-((((((R)-1-(6-amino-9H-purin-9-yl)propan-2-yl)oxy)methyl)phosphoryl)bis(azanediyl))(1R,1′R,2R,2′R)-bis(2-ethylcyclopropane-1-carboxylate)], the pEC50 was < 6.30.

In the case of `CCCCCCOC(=O)C(C)(C)NP(=O)(CO[C@H](C)Cn1cnc2c(N)ncnc21)NC1(C(=O)OCCCCCC)CCC1` (stereo partly drawn) [Example 18, Hexyl 1-((((((R)-1-(6-amino-9H-purin-9-yl)propan-2-yl)oxy)methyl)((1-(hexyloxy)-2-methyl-1-oxopropan-2-yl)amino)phosphoryl)amino)cyclobutane-1-carboxylate], the pEC50 was 7.89.

For `CCCCCCOC(=O)C1(NP(=O)(CO[C@H](C)Cn2cnc3c(N)ncnc32)NC2(C(=O)OCCCCCC)CCC2)CCC1` [Example 19, Dihexyl 1,1′-(((((1-(6-amino-9H-purin-9-yl)propan-2-yl)oxy)methyl)phosphoryl)bis(azanediyl))(R)-bis(cyclobutane-1-carboxylate)], the pEC50 was 7.52.

Compound `CCCCCCOC(=O)C(C)(C)NP(=O)(CO[C@H](C)Cn1cnc2c(N)ncnc21)NC1(C(=O)OCCCCCC)CC1` (stereo partly drawn) [Example 20, Hexyl 1-((((((R)-1-(6-amino-9H-purin-9-yl)propan-2-yl)oxy)methyl)((1-(hexyloxy)-2-methyl-1-oxopropan-2-yl)amino)phosphoryl)amino)cyclopropane-1-carboxylate] has a pEC50 of 7.92.

`C[C@H](Cn1cnc2c(N)ncnc21)OCP(=O)(NC(C)(C)C(=O)O[C@H]1CC[C@H](C(F)(F)F)CC1)NC(C)(C)C(=O)O[C@H]1CC[C@H](C(F)(F)F)CC1` [Example 21, Bis(trans-4-(trifluoromethyl)cyclohexyl) 2,2′-((((((R)-1-(6-amino-9H-purin-9-yl)propan-2-yl)oxy)methyl)phosphoryl)bis(azanediyl))bis(2-methylpropanoate)] showed a pEC50 of 8.15.

`CCCCCCOC(=O)C(C)(C)NP(=O)(CO[C@H](C)Cn1cnc2c(N)ncnc21)NC(C)(C)C(=O)O[C@H]1CC[C@H](C(F)(F)F)CC1` (stereo partly drawn) [Example 22, Hexyl 2-((((((R)-1-(6-amino-9H-purin-9-yl)propan-2-yl)oxy)methyl)((2-methyl-1-oxo-1-((trans-4-(trifluoromethyl)cyclohexyl)oxy)propan-2-yl)amino)phosphoryl)amino)-2-methylpropanoate] was tested, and the pEC50 was 8.05.
